Here are results for 14 compounds from patent US10259810B2, “N-sulfonylated pyrazolo[3,4-b]pyridin-6-carboxamides and method of use” (AbbVie S.à.r.l., priority 2015, dated 2019).

Structures are written as SMILES.

Assay [1] addresses T1, ΔF508-CFTR (Homo sapiens, UniProt P13569, DEL508-508).
T1 construct: host or cells: CFBE41o-, doxycycline-inducible
Nature of the assay: CFTR cell surface levels using HRP-tagged ΔF508-CFTR expressing CFBE cells, in the presence of a co-corrector. The assay is classed as cell-based. As to conditions: HRP-tagged ΔF508-CFTR CFBE cells, in the presence of 3 μM co-corrector; for EC50: read-out: EC50. The gist of the method: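 Chemiluminescent read-out of surface HRP (15 min, dark) after PBS washes. Activity is normalized as 100×(sample−DMSO)/(3 μM co-corrector alone−DMSO).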

Assay [2] has as its target T1, ΔF508-CFTR. The assay can be described thus: CFTR cell surface levels using HRP-tagged ΔF508-CFTR expressing CFBE cells, intrinsic corrector capacity. As to conditions: HRP-tagged ΔF508-CFTR expressing CFBE41o- cells, compound alone (intrinsic corrector capacity), 20 hours at 33° C.; for EC50: read-out: EC50. More on the design: % Activation: concentration or dose not given beside the values. The assay is classed as cell-based. The gist of the method: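 Surface ΔF508-CFTR was measured as HRP chemiluminescence from an extracellular-loop-4 tag, expressed as percent activity between DMSO and a […] corrector control.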

T1 sequence (P13569 with tags, fused parts or gaps DEL508-508): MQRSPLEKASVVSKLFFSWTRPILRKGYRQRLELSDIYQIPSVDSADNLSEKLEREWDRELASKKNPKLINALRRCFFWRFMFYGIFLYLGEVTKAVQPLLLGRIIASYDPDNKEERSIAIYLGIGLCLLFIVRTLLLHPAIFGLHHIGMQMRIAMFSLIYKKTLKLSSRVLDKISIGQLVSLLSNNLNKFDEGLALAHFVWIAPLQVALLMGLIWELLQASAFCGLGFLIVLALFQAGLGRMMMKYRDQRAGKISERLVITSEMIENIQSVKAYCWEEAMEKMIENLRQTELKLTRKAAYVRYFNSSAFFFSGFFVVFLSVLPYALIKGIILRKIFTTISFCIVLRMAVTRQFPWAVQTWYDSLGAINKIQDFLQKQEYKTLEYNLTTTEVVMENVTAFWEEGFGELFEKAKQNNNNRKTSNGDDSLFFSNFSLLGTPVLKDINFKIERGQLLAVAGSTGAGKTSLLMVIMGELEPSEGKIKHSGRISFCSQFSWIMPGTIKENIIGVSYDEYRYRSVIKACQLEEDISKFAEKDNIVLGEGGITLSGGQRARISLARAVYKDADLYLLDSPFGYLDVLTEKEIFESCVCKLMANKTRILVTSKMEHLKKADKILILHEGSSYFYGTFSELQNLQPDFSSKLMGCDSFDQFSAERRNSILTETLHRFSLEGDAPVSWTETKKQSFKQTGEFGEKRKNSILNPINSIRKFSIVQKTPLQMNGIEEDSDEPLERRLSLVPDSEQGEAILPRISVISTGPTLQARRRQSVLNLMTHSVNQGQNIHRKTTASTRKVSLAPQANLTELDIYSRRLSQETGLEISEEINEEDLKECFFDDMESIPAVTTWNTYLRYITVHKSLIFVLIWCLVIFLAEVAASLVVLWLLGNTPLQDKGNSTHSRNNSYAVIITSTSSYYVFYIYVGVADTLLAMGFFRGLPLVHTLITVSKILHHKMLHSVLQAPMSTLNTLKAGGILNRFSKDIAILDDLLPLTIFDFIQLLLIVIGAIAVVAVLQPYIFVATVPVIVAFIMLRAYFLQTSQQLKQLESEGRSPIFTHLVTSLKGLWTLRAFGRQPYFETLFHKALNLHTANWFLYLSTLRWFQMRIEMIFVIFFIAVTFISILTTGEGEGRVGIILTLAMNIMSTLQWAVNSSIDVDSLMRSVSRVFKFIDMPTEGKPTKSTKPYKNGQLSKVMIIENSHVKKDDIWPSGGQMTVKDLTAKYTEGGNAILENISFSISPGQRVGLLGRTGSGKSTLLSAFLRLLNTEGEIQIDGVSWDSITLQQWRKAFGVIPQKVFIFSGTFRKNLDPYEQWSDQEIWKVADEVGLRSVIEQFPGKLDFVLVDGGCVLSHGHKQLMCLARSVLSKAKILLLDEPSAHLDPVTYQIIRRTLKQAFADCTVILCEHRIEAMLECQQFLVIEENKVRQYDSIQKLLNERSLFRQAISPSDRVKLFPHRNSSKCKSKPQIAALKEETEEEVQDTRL

As for `O=C(NS(=O)(=O)N1CC(F)(F)C1)c1cc(N2CCC(N3CCOCC3)CC2)c2c(C3CCC3)nn(-c3ccc(F)cc3)c2n1` [Compound 580, 3-cyclobutyl-N-(3,3-difluoroazetidine-1-sulfonyl)-1-(4-fluorophenyl)-4-[4-(morpholin-4-yl)piperidin-1-yl]-1H-pyrazolo[3,4-b]pyridine-6-carboxamide], in assay [1], the “% Activation” value was 387.45% and the EC50 was 52.4 nM. Besides, in assay [2], the “% Activation” value turned out to be 201.52% and the EC50 was found to be 131 nM.
Regarding `C[C@H]1CN(c2cc(C(=O)NS(=O)(=O)N(C)C)nc3c2c(C2CCC2)nn3C2CCCCC2)CCN1Cc1ccccc1` [Compound 581, 4-[(3S)-4-benzyl-3-methylpiperazin-1-yl]-3-cyclobutyl-1-cyclohexyl-N-(dimethylsulfamoyl)-1H-pyrazolo[3,4-b]pyridine-6-carboxamide], the “% Activation” value in assay [1] is listed as 191.3%; in assay [2], 33.38%. The EC50 came to 761 nM in assay [1] and 370 nM in assay [2].
The matching figures for `C[C@@H]1CN(c2cc(C(=O)NS(=O)(=O)N(C)C)nc3c2c(C2CCC2)nn3C2CCCCC2)CCN1Cc1ccccc1` [Compound 582, 4-[(3R)-4-benzyl-3-methylpiperazin-1-yl]-3-cyclobutyl-1-cyclohexyl-N-(dimethylsulfamoyl)-1H-pyrazolo[3,4-b]pyridine-6-carboxamide]: 245.15%, 75.38%, 271 nM and 370 nM.
`CN(C)S(=O)(=O)NC(=O)c1cc(N2CCC3(CC2)CCN(C2CC2)CC3)c2c(C3CCC3)nn(-c3ccc(F)cc3)c2n1` [Compound 584, 3-cyclobutyl-4-(9-cyclopropyl-3,9-diazaspiro[5.5]undecan-3-yl)-N-(dimethylsulfamoyl)-1-(4-fluorophenyl)-1H-pyrazolo[3,4-b]pyridine-6-carboxamide]: in assay [1], the “% Activation” value was 337.55% and the EC50 stood at 272 nM. In assay [2], the “% Activation” value stood at 164.3% and the EC50 turned out to be 177 nM.
For `COC1CN(C2CCN(c3cc(C(=O)NS(C)(=O)=O)nc4c3c(C3CCC3)nn4-c3ccc(F)cc3)CC2)C1` [Compound 585, 3-cyclobutyl-1-(4-fluorophenyl)-N-(methanesulfonyl)-4-[4-(3-methoxyazetidin-1-yl)piperidin-1-yl]-1H-pyrazolo[3,4-b]pyridine-6-carboxamide], in that order: 509.7%, 248 nM, 316.6% and 1240 nM.
The matching figures for `CS(=O)(=O)NC(=O)c1cc(N2CCC(N3CCCC(C(F)(F)F)C3)CC2)c2c(C3CCC3)nn(-c3ccc(F)cc3)c2n1` (stereo not shown) [Compound 586, 3-cyclobutyl-1-(4-fluorophenyl)-N-(methanesulfonyl)-4-[3-(trifluoromethyl)[1,4'-bipiperidin]-1'-yl]-1H-pyrazolo[3,4-b]pyridine-6-carboxamide]: 618.65%, 37.1 nM, 331.67% and 52.4 nM.
On to `COC1CCCN(C2CCN(c3cc(C(=O)NS(C)(=O)=O)nc4c3c(C3CCC3)nn4-c3ccc(F)cc3)CC2)C1` (stereo not shown) [Compound 587, 3-cyclobutyl-1-(4-fluorophenyl)-N-(methanesulfonyl)-4-(3-methoxy[1,4'-bipiperidin]-1'-yl)-1H-pyrazolo[3,4-b]pyridine-6-carboxamide], for which the “% Activation” value in assay [1] is recorded as 504.6%; in assay [2], 277.1%. In addition, the results for the half-maximal effective concentration (EC50) in assay [1] and in assay [2] were 398 nM and 235 nM, respectively.
The matching figures for `CC1(C)CN(C2CCN(c3cc(C(=O)NS(C)(=O)=O)nc4c3c(C3CCC3)nn4-c3ccc(F)cc3)CC2)CCO1` [Compound 588, 3-cyclobutyl-4-[4-(2,2-dimethylmorpholin-4-yl)piperidin-1-yl]-1-(4-fluorophenyl)-N-(methanesulfonyl)-1H-pyrazolo[3,4-b]pyridine-6-carboxamide]: 571.2%, 366.8%, 29 nM and 126 nM.
With `COCCN(C)C1CCN(c2cc(C(=O)NS(=O)(=O)N(C)C)nc3c2c(C2CCC2)nn3-c2ccc(F)cc2)CC1` [Compound 591, 3-cyclobutyl-N-(dimethylsulfamoyl)-1-(4-fluorophenyl)-4-{4-[(2-methoxyethyl)(methyl)amino]piperidin-1-yl}-1H-pyrazolo[3,4-b]pyridine-6-carboxamide], in assay [1], the “% Activation” value amounted to 384% and the concentration for a half-maximal effect (EC50) turned out to be 1590 nM. Also, in assay [2], the “% Activation” value is given as 189.1% and the EC50 is 795 nM.
For `CONS(=O)(=O)NC(=O)c1cc(N2CCC(N3CCOCC3)CC2)c2c(C3CCC3)nn(-c3ccc(F)cc3)c2n1` [Compound 592, 3-cyclobutyl-1-(4-fluorophenyl)-N-(methoxysulfamoyl)-4-[4-(morpholin-4-yl)piperidin-1-yl]-1H-pyrazolo[3,4-b]pyridine-6-carboxamide], in that order: 518.55%, 56.8 nM, 300.8% and 183 nM.
`CS(=O)(=O)NC(=O)c1cc(C2CCN(C3CCC(F)(F)CC3)CC2)c2c(C3CCC3)nn(-c3ccc(F)cc3)c2n1` [Compound 593, 3-cyclobutyl-4-[1-(4,4-difluorocyclohexyl)piperidin-4-yl]-1-(4-fluorophenyl)-N-(methanesulfonyl)-1H-pyrazolo[3,4-b]pyridine-6-carboxamide]: in assay [1], the “% Activation” value is 366.7% and the EC50 stood at 194 nM. In assay [2], the “% Activation” value turned out to be 157.8% and the EC50 turned out to be 190 nM.
Turning to `CN(C)S(=O)(=O)NC(=O)c1cc(CN2CCC(N3CCOCC3)CC2)c2c(C3CCC3)nn(-c3ccc(F)cc3)c2n1` [Compound 595, 3-cyclobutyl-N-(dimethylsulfamoyl)-1-(4-fluorophenyl)-4-{[4-(morpholin-4-yl)piperidin-1-yl]methyl}-1H-pyrazolo[3,4-b]pyridine-6-carboxamide], in assay [1], the “% Activation” value was determined as 231.9% and the EC50 turned out to be 1430 nM. Further, in assay [2], the “% Activation” value is 58.87% and the concentration for a half-maximal effect (EC50) is 1520 nM.
Take `CS(=O)(=O)NC(=O)c1cc(CN2CCC(N3CCOCC3)CC2)c2c(C3CCC3)nn(-c3ccc(F)cc3)c2n1` [Compound 596, 3-cyclobutyl-1-(4-fluorophenyl)-N-(methanesulfonyl)-4-{[4-(morpholin-4-yl)piperidin-1-yl]methyl}-1H-pyrazolo[3,4-b]pyridine-6-carboxamide]: the “% Activation” value worked out at 304.8% in assay [1] and 104.3% in assay [2]. The 50% effective concentration (EC50) worked out at 1910 nM in assay [1] and 1380 nM in assay [2].
Consider `CC(C)N1CCC(c2cc(C(=O)NS(=O)(=O)N(C)C)nc3c2c(C2CCC2)nn3-c2ccc(F)cc2)CC1` [Compound 598, 3-cyclobutyl-N-(dimethylsulfamoyl)-1-(4-fluorophenyl)-4-[1-(propan-2-yl)piperidin-4-yl]-1H-pyrazolo[3,4-b]pyridine-6-carboxamide], for which, in assay [1], the “% Activation” value was found to be 153.9% and the EC50 was at least 10000 nM. Moreover, the “% Activation” value in assay [2] was 28.03%.
